Holding throughout (type): functional
For assay [1], the system named is Klebsiella pneumoniae. Briefly: Antimicrobial activity against hospital-acquired Klebsiella pneumoniae obtained from patient with intra-abdominal infection assessed as susceptible isolates by EUCAST method.
Assay [2] has as its system Klebsiella pneumoniae. Briefly: Antimicrobial activity against community-acquired Klebsiella pneumoniae obtained from patient with intra-abdominal infection assessed as susceptible isolates by EUCAST method.
For assay [3], the system named is Klebsiella pneumoniae. Briefly: Antimicrobial activity against community-acquired Klebsiella pneumoniae expressing extended spectrum beta-lactamase obtained from patient with intra-abdominal infection assessed as susceptible isolates by EUCAST method.
In assay [4] the test system is Escherichia coli. Nature of the assay: Antimicrobial activity against hospital-acquired Escherichia coli obtained from patient with intra-abdominal infection assessed as susceptible isolates by EUCAST method.
The subject of assay [5] is Escherichia coli. Nature of the assay: Antimicrobial activity against community-acquired Escherichia coli obtained from patient with intra-abdominal infection assessed as susceptible isolates by EUCAST method.
The test system of assay [6] is Escherichia coli. Briefly: Antimicrobial activity against hospital-acquired Escherichia coli expressing extended spectrum beta-lactamase obtained from patient with intra-abdominal infection assessed as susceptible isolates by EUCAST method.
Assay [7] concerns Klebsiella pneumoniae. Nature of the assay: Antimicrobial activity against hospital-acquired Klebsiella pneumoniae expressing extended spectrum beta-lactamase obtained from patient with intra-abdominal infection assessed as susceptible isolates by EUCAST method.
For assay [8], the system named is Escherichia coli. Nature of the assay: Antimicrobial activity against community-acquired Escherichia coli expressing extended spectrum beta-lactamase obtained from patient with intra-abdominal infection assessed as susceptible isolates by EUCAST method.
Assay [9] deals with Klebsiella pneumoniae. Briefly: Antimicrobial activity against community-acquired Klebsiella pneumoniae obtained from patient with intra-abdominal infection assessed as susceptible isolates by EUCAST method in presence of beta-lactamase inhibitor Sulbactam.
Assay [10] deals with Klebsiella pneumoniae. Briefly: Antimicrobial activity against hospital-acquired Klebsiella pneumoniae expressing extended spectrum beta-lactamase obtained from patient with intra-abdominal infection assessed as susceptible isolates by EUCAST method in presence of beta-lactamase inhibitor Sulbactam.
Assay [11] concerns Escherichia coli. Briefly: Antimicrobial activity against community-acquired Escherichia coli obtained from patient with intra-abdominal infection assessed as susceptible isolates by EUCAST method in presence of beta-lactamase inhibitor Sulbactam.
Assay [12] relates to Klebsiella pneumoniae. Briefly: Antimicrobial activity against hospital-acquired Klebsiella pneumoniae obtained from patient with intra-abdominal infection assessed as susceptible isolates by EUCAST method in presence of beta-lactamase inhibitor Sulbactam.
Assay [13] has as its system Escherichia coli. Briefly: Antimicrobial activity against hospital-acquired Escherichia coli expressing extended spectrum beta-lactamase obtained from patient with intra-abdominal infection assessed as susceptible isolates by EUCAST method in presence of beta-lactamase inhibitor Sulbactam.
For assay [14], the system named is Klebsiella pneumoniae. Briefly: Antimicrobial activity against community-acquired Klebsiella pneumoniae expressing extended spectrum beta-lactamase obtained from patient with intra-abdominal infection assessed as susceptible isolates by EUCAST method in presence of beta-lactamase inhibitor Sulbactam.
Assay [15] deals with Escherichia coli. Briefly: Antimicrobial activity against hospital-acquired Escherichia coli obtained from patient with intra-abdominal infection assessed as susceptible isolates by EUCAST method in presence of beta-lactamase inhibitor Sulbactam.
Assay [16] has as its system Escherichia coli. Nature of the assay: Antimicrobial activity against community-acquired Escherichia coli expressing extended spectrum beta-lactamase obtained from patient with intra-abdominal infection assessed as susceptible isolates by EUCAST method in presence of beta-lactamase inhibitor Sulbactam.

This is an account of results in ChEMBL document CHEMBL1275603, “Incidence and antimicrobial susceptibility of Escherichia coli and Klebsiella pneumoniae with extended-spectrum beta-lactamases in community- and hospital-associated intra-abdominal infections in Europe: results of the 2008 Study for Monitoring Antimicrobial Resistance Trends (SMART)” (2010).

For `NCC[C@H](O)C(=O)N[C@@H]1C[C@H](N)[C@@H](O[C@H]2O[C@H](CN)[C@@H](O)[C@H](O)[C@H]2O)[C@H](O)[C@H]1O[C@H]1O[C@H](CO)[C@@H](O)[C@H](N)[C@H]1O` [AMIKACIN], the Activity with Klebsiella pneumoniae [1] amounted to 92.7%; in the assay on Klebsiella pneumoniae [2] it was 98.6%; in the assay on Klebsiella pneumoniae [3] it was 75%; in the assay on Escherichia coli [4], 97%; with Escherichia coli [5] it was 98.5%; in the assay with Escherichia coli [6], 53.7%. In addition, the Activity in the assay on Klebsiella pneumoniae [7] turned out to be 66%; in the assay on Escherichia coli [8], 59.5%.
On to `CC1(C)S[C@@H]2[C@H](NC(=O)[C@H](N)c3ccccc3)C(=O)N2[C@H]1C(=O)O` [AMPICILLIN], for which the Activity was 79.2% in the assay on Klebsiella pneumoniae [9]; 6.4% with Klebsiella pneumoniae [10]; 53% in the assay with Escherichia coli [11]; 62.9% with Klebsiella pneumoniae [12]; 9.1% in the assay on Escherichia coli [13]; 0% with Klebsiella pneumoniae [14]. Besides, the Activity in the assay on Escherichia coli [15] is recorded as 44.5%; with Escherichia coli [16], 5.4%.
Turning to `CO/N=C(\C(=O)N[C@@H]1C(=O)N2C(C(=O)[O-])=C(C[N+]3(C)CCCC3)CS[C@H]12)c1csc(N)n1` [CEFEPIME], the Activity with Klebsiella pneumoniae [1] is 91.6%; in the assay with Klebsiella pneumoniae [2], 98.6%; in the assay with Klebsiella pneumoniae [3], 0%; in the assay with Escherichia coli [5], 98.5%; with Escherichia coli [6], 9.9%; in the assay on Klebsiella pneumoniae [7], 10.6%. Moreover, the Activity with Escherichia coli [8] is 8.1%.
With `CO/N=C(\C(=O)N[C@@H]1C(=O)N2C(C(=O)O)=C(COC(C)=O)CS[C@H]12)c1csc(N)n1` [CEFOTAXIME], the Activity in the assay on Klebsiella pneumoniae [1] worked out at 92.1%; with Klebsiella pneumoniae [2], 100%; with Klebsiella pneumoniae [3], 0%; with Escherichia coli [4], 95.8%; in the assay on Escherichia coli [5] it was 98.7%; in the assay with Escherichia coli [6] it was 3.3%. For the same compound, the Activity in the assay on Klebsiella pneumoniae [7] is recorded as 6.4%; with Escherichia coli [8] it was 0%.
For `CC(C)(O/N=C(\C(=O)N[C@@H]1C(=O)N2C(C(=O)[O-])=C(C[n+]3ccccc3)CS[C@H]12)c1csc(N)n1)C(=O)O` [CEFTAZIDIME], the Activity is reported as 91% in the assay on Klebsiella pneumoniae [1]; 98.6% in the assay on Klebsiella pneumoniae [2]; 0% with Klebsiella pneumoniae [3]; 94.3% with Escherichia coli [4]; 97.2% with Escherichia coli [5]; 5.8% in the assay on Escherichia coli [6]. Further, the Activity was 0% in the assay with Klebsiella pneumoniae [7] and 8.1% in the assay on Escherichia coli [8].
With `CO/N=C(\C(=O)N[C@@H]1C(=O)N2C(C(=O)O)=C(CSc3nc(=O)c(O)nn3C)CS[C@H]12)c1csc(N)n1` [CEFTRIAXONE], the Activity came to 90.5% with Klebsiella pneumoniae [1]; 98.6% in the assay on Klebsiella pneumoniae [2]; 0% with Klebsiella pneumoniae [3]; 95.8% in the assay with Escherichia coli [4]; 98.3% with Escherichia coli [5]; 3.3% with Escherichia coli [6]. Also, the Activity amounted to 4.3% in the assay with Klebsiella pneumoniae [7] and 2.7% in the assay on Escherichia coli [8].
Regarding `O=C(O)c1cn(C2CC2)c2cc(N3CCNCC3)c(F)cc2c1=O` [CIPROFLOXACIN], the Activity with Klebsiella pneumoniae [1] came out at 79.2%; in the assay on Klebsiella pneumoniae [2], 94.4%; with Klebsiella pneumoniae [3], 50%; with Escherichia coli [4], 78.3%; with Escherichia coli [6] it was 22.3%; in the assay with Klebsiella pneumoniae [7], 29.8%. For the same compound, the Activity in the assay with Escherichia coli [8] was 29.7%.
Regarding `C[C@@H](O)[C@H]1C(=O)N2C(C(=O)O)=C(S[C@@H]3CN[C@H](C(=O)Nc4cccc(C(=O)O)c4)C3)[C@H](C)[C@H]12` [ERTAPENEM], the Activity in the assay with Klebsiella pneumoniae [1] is recorded as 93.3%; in the assay on Klebsiella pneumoniae [2], 100%; with Klebsiella pneumoniae [3] it was 100%; in the assay on Escherichia coli [4] it was 98.9%; with Escherichia coli [5], 99.3%; in the assay with Escherichia coli [6], 99.2%. Besides, the Activity in the assay on Klebsiella pneumoniae [7] was 83%; in the assay with Escherichia coli [8] it was 100%.
On to `C[C@@H](O)[C@H]1C(=O)N2C(C(=O)O)=C(SCCNC=N)C[C@H]12` [IMIPENEM ANHYDROUS], for which the Activity amounted to 94.9% with Klebsiella pneumoniae [1]; 100% in the assay with Klebsiella pneumoniae [2]; 100% in the assay with Klebsiella pneumoniae [3]; 99.6% in the assay on Escherichia coli [4]; 99.8% in the assay with Escherichia coli [5]; 100% with Escherichia coli [6]. Besides, the Activity worked out at 89.4% with Klebsiella pneumoniae [7] and 100% in the assay on Escherichia coli [8].
With `C[C@H]1COc2c(N3CCN(C)CC3)c(F)cc3c(=O)c(C(=O)O)cn1c23.C[C@H]1COc2c(N3CCN(C)CC3)c(F)cc3c(=O)c(C(=O)O)cn1c23.O` [LEVOFLOXACIN], the Activity was 83.2% in the assay on Klebsiella pneumoniae [1]; 97.2% in the assay with Klebsiella pneumoniae [2]; 50% with Klebsiella pneumoniae [3]; 79.8% with Escherichia coli [4]; 87% with Escherichia coli [5]; 24.8% with Escherichia coli [6]. Besides, the Activity in the assay on Klebsiella pneumoniae [7] is given as 40.4%; in the assay on Escherichia coli [8], 32.4%.
